We go through three compounds from patent publication US4444691A, “11-Cyano-prostaglandins of the F-series” (American Cyanamid Company, priority 1982, dated 1984).

For data set [1], the system named is basal gastric acid secretion. In words: Inhibition of total acid output (basal gastric acid secretion) in the acute gastric fistula rat. Type of data set: in vivo, female Sprague-Dawley rats. The settings on record: Rattus norvegicus, intraduodenal.
The next data set concerns ligated intestine. The arrangement: species or system female Sprague-Dawley rats. As to conditions: rat, in vivo. As for the experimental part: It is therefore unexpected and novel that in general, the compounds of this invention are not diarrheagenic at dose levels at which they are effective gastric acid secretion inhibitors. One measure of diarrheagenic potential is the ileal ligated rat assay, a description of which follows directly.
Female Sprague-Dawley rats (Charles River Laboratories) weighing less than 100 grams are fasted in individual cages for at least 18 hours. They are then anesthetized with ether and a midline incision made. The duodenum is exposed and the test drug or control injected intraduodenally. The ilcocecal junction is then exposed and the terminal ileum is ligated using 3-0 silk thread just proximal to the junction. The incision is then closed using wound clips. Rats are placed back in individual cages without food or water for four hours. After this time the rats were sacrificed, the stomach and small intestine carefully removed, and cleaned of adherent mesentery. The removed portion of gut is then weighed to the nearest 0.1 gram. Compounds inducing diarrhea such as prostaglandins, cholera toxin, etc. produce an increase in weight of the ligated intestine. This increase from control is noted in Table IV, as change in weight in grams after standardizing weights of gut to grams/100 gram rat. An increase in intestinal weight of about 1.0 g. is considered indicative of diarrheagenic potential.
When measured by this assay at effective gastric acid secretion inhibiting doses, as determined by the acute rat fistula assay representative novel compounds of Table IV are non-diarrheagenic.

Data set [2] has as its system ulcerogenic effects induced by indomethacin (stomach ulcers). It counts as in vivo, rat. As to conditions: indomethacin 20 mg/kg s.c., 5 h.
The subject of the next data set is gastrointestinal effects. As to conditions: Physician's Desk Reference 1972, p. 964; cited from earlier work.
Setting [3] is: 1 h, 60 min, read-out: % Inhibition of total acid output, after 60 minutes (A).
Setting [4] is: 2 h, 120 min, read-out: % Inhibition of total acid output, after 120 minutes (B).

Where two headings read alike, the source gives them in different places.

As for `CCCCC[C@H](O)/C=C/[C@H]1C(SC(C)=O)CC(=O)[C@@H]1C/C=C\CCCC(=O)O` (stereo partly drawn) [l-11-acetylthio-11-deoxyprostaglandin-E2, 11-deoxy-11α/β-acetylthioprostaglandin E2], the figures for the inhibition in vivo at 10 mg/kg in data set [1] (setting [3]) and in data set [1] (setting [4]) were 66% and 68%, respectively. Besides, the “Increase in weight of intestine” value with ligated intestine (10 mg/kg) is -0.02 g; in the data set on ligated intestine (20 mg/kg), -0.1 g.
In the case of `CCCCC[C@H](O)/C=C/[C@H]1[C@H](CO)C[C@@H](O)[C@@H]1C/C=C\CCCC(=O)O` [l-11-dexoy-11α-hydroxymethylprostaglandin-F2 β], the inhibition in vivo at 5 mg/kg in data set [1] (setting [3]) and in data set [1] (setting [4]) was 49% each time. For the same compound, the “Increase in weight of intestine” value with ligated intestine (10 mg/kg) is listed as “+0.6 g”.
As for `COc1ccc2c(c1)c(CC(=O)O)c(C)n2C(=O)c1ccc(Cl)cc1` [indomethacin, reference compound], in data set [2], the “Ulcer score, control animals treated with indomethacin but not test compound” value is on record as 2.5-3.5. Besides, in the data set with gastrointestinal effects, the Gastrointestinal reactions result was “occurrence and, at times, severity of gastrointestinal reactions”.
